Literature values in patent publication US12433860B2, “Treatment of multiple sclerosis comprising DHODH inhibitors” (Immunic AG, priority 2021, dated 2025).

System: patients with active rheumatoid arthritis
Conditions: 35 mg once-daily for 13 weeks; cited from earlier work

COc1cccc(-c2ccc(NC(=O)C3=C(C(=O)O)CCC3)c(F)c2)c1 [vidofludimus, 2-((3-fluoro-3′-methoxy-[1,1′-biphenyl]-4-yl)carbamoyl)cyclopent-1-enecarboxylic acid]
diarrhoea, alopecia, neutropenia or liver enzyme elevations: no notable increases | safety profile as compared to placebo: overall similar safety profile as compared to placebo
